# Reference: patent publication US20260248134A1, “A METHOD FOR CONTROLLING WEEDS” (UPL MAURITIUS LIMITED, priority 2023, published 2026)
# What was measured:
# Assay type in all cases: in vivo
# Ipomoea hederifolia = experiment: Control of Ipomoea hederifolia weed at different application rates (Example 6)
# Source text: The effect of application of asulam was observed on the growth of Ipomoea hederifolia weed at 21, 28 and 35 DAA (days after application) at different application rates. The percentage (%) control of weeds has been evaluated and disclosed in Table 6.
# Avena strigose = experiment: Control of Avena strigose weed at different application rates (Example 8)
# Source text: The effect of application of asulam was observed on the growth of Avena strigose weed at 28, 35 and 49 DAA (days after application) at different application rates. The percentage (%) control of weeds has been evaluated and disclosed in Table 8.
# Eleusine indica = experiment: Control of weeds at pre-emergence stage (Example 9)
# Source text: (§1) The effect of application of asulam was observed on the growth of weeds at pre-emergence stage for different application rates. The percentage (%) control of weeds has been evaluated and disclosed in Table 9.
# Digitaria insularis = experiment: as above
# Source text: as §1
# Ambrosia artemisifolia = experiment: Control of Ambrosia artemisifolia weed at different application rates (Example 4)
# Source text: The effect of application of asulam was observed on the growth of Ambrosia artemisifolia weed at 28, 35 and 49 DAA (days after application) at different application rates. The percentage (%) control of weeds has been evaluated and disclosed in Table 4.
compound,measurement,setting,value
"COC(=O)NS(=O)(=O)c1ccc(N)cc1 [Asulam, asulam]",Control of Ipomoea hederifolia,"Ipomoea hederifolia; 1800 g a.i/ha, 28 DAA",77%
same,Control of Ipomoea hederifolia,"Ipomoea hederifolia; 1800 g a.i/ha, 35 DAA",76%
same,Control of Ipomoea hederifolia,"Ipomoea hederifolia; 2250 g a.i/ha, 21 DAA",71%
same,Control of Ipomoea hederifolia,"Ipomoea hederifolia; 2250 g a.i/ha, 28 DAA",83%
same,Control of Ipomoea hederifolia,"Ipomoea hederifolia; 2250 g a.i/ha, 35 DAA",85%
same,Control of Ipomoea hederifolia,"Ipomoea hederifolia; 2500 g a.i/ha, 21 DAA",70%
same,Control of Ipomoea hederifolia,"Ipomoea hederifolia; 2500 g a.i/ha, 28 DAA",84%
same,Control of Ipomoea hederifolia,"Ipomoea hederifolia; 2500 g a.i/ha, 35 DAA",88%
same,Control of Avena strigose,"Avena strigose; 1200 g a.i/ha, 28 DAA",81%
same,Control of Avena strigose,"Avena strigose; 1200 g a.i/ha, 35 DAA",84%
same,Control of Avena strigose,"Avena strigose; 1200 g a.i/ha, 49 DAA",81%
same,Control of Avena strigose,"Avena strigose; 1500 g a.i/ha, 28 DAA",86%
same,Control of Avena strigose,"Avena strigose; 1500 g a.i/ha, 35 DAA",89%
same,Control of Avena strigose,"Avena strigose; 1500 g a.i/ha, 49 DAA",89%
same,Control of Avena strigose,"Avena strigose; 1800 g a.i/ha, 28 DAA",96%
same,Control of Avena strigose,"Avena strigose; 1800 g a.i/ha, 35 DAA",99%
same,Control of Avena strigose,"Avena strigose; 1800 g a.i/ha, 49 DAA",99%
same,Control of Avena strigose,"Avena strigose; 2250 g a.i/ha, 28 DAA",95%
same,Control of Avena strigose,"Avena strigose; 2250 g a.i/ha, 35 DAA",100%
same,Control of Avena strigose,"Avena strigose; 2250 g a.i/ha, 49 DAA",100%
same,Control of Avena strigose,"Avena strigose; 2500 g a.i/ha, 28 DAA",98%
same,Control of Avena strigose,"Avena strigose; 2500 g a.i/ha, 35 DAA",100%
same,Control of Avena strigose,"Avena strigose; 2500 g a.i/ha, 49 DAA",100%
same,percentage (%) control of weeds,"Eleusine indica; 1200 g a.i/ha, 28 DAA",83%
same,percentage (%) control of weeds,"Eleusine indica; 1200 g a.i/ha, 35 DAA",78%
same,percentage (%) control of weeds,"Eleusine indica; 1200 g a.i/ha, 49 DAA",99%
same,percentage (%) control of weeds,"Eleusine indica; 1500 g a.i/ha, 28 DAA",88%
same,percentage (%) control of weeds,"Eleusine indica; 1500 g a.i/ha, 35 DAA",88%
same,percentage (%) control of weeds,"Eleusine indica; 1500 g a.i/ha, 49 DAA",99%
same,percentage (%) control of weeds,"Eleusine indica; 1800 g a.i/ha, 28 DAA",90%
same,percentage (%) control of weeds,"Eleusine indica; 1800 g a.i/ha, 35 DAA",91%
same,percentage (%) control of weeds,"Eleusine indica; 1800 g a.i/ha, 49 DAA",100%
same,percentage (%) control of weeds,"Eleusine indica; 2250 g a.i/ha, 28 DAA",92%
same,percentage (%) control of weeds,"Eleusine indica; 2250 g a.i/ha, 35 DAA",93%
same,percentage (%) control of weeds,"Eleusine indica; 2250 g a.i/ha, 49 DAA",100%
same,percentage (%) control of weeds,"Eleusine indica; 2500 g a.i/ha, 28 DAA",91%
same,percentage (%) control of weeds,"Eleusine indica; 2500 g a.i/ha, 35 DAA",92%
same,percentage (%) control of weeds,"Eleusine indica; 2500 g a.i/ha, 49 DAA",100%
same,percentage (%) control of weeds,"Digitaria insularis; 1000 g a.i/ha, 28 DAA",94%
same,percentage (%) control of weeds,"Digitaria insularis; 1000 g a.i/ha, 35 DAA",98%
same,percentage (%) control of weeds,"Digitaria insularis; 1000 g a.i/ha, 49 DAA",100%
same,percentage (%) control of weeds,"Digitaria insularis; 1200 g a.i/ha, 28 DAA",98%
same,percentage (%) control of weeds,"Digitaria insularis; 1200 g a.i/ha, 35 DAA",100%
same,percentage (%) control of weeds,"Digitaria insularis; 1200 g a.i/ha, 49 DAA",100%
same,percentage (%) control of weeds,"Digitaria insularis; 1500 g a.i/ha, 28 DAA",99%
same,percentage (%) control of weeds,"Digitaria insularis; 1500 g a.i/ha, 35 DAA",100%
same,percentage (%) control of weeds,"Digitaria insularis; 1500 g a.i/ha, 49 DAA",100%
same,percentage (%) control of weeds,"Digitaria insularis; 1800 g a.i/ha, 28 DAA",99%
same,percentage (%) control of weeds,"Digitaria insularis; 1800 g a.i/ha, 35 DAA",100%
same,percentage (%) control of weeds,"Digitaria insularis; 1800 g a.i/ha, 49 DAA",100%
same,percentage (%) control of weeds,"Digitaria insularis; 2250 g a.i/ha, 28 DAA",100%
same,percentage (%) control of weeds,"Digitaria insularis; 2250 g a.i/ha, 35 DAA",100%
same,percentage (%) control of weeds,"Digitaria insularis; 2250 g a.i/ha, 49 DAA",100%
same,percentage (%) control of weeds,"Digitaria insularis; 2500 g a.i/ha, 28 DAA",99%
same,percentage (%) control of weeds,"Digitaria insularis; 2500 g a.i/ha, 35 DAA",100%
same,percentage (%) control of weeds,"Digitaria insularis; 2500 g a.i/ha, 49 DAA",100%
same,Control of Ambrosia Artemisifolia,"Ambrosia artemisifolia; 1200 g a.i/ha, 28 DAA",86%
same,Control of Ambrosia Artemisifolia,"Ambrosia artemisifolia; 1200 g a.i/ha, 35 DAA",87%
same,Control of Ambrosia Artemisifolia,"Ambrosia artemisifolia; 1200 g a.i/ha, 49 DAA",90%
same,Control of Ambrosia Artemisifolia,"Ambrosia artemisifolia; 1500 g a.i/ha, 28 DAA",91%
same,Control of Ambrosia Artemisifolia,"Ambrosia artemisifolia; 1500 g a.i/ha, 35 DAA",90%
same,Control of Ambrosia Artemisifolia,"Ambrosia artemisifolia; 1500 g a.i/ha, 49 DAA",91%
same,Control of Ambrosia Artemisifolia,"Ambrosia artemisifolia; 2250 g a.i/ha, 28 DAA",93%
same,Control of Ambrosia Artemisifolia,"Ambrosia artemisifolia; 2250 g a.i/ha, 35 DAA",94%
same,Control of Ambrosia Artemisifolia,"Ambrosia artemisifolia; 2250 g a.i/ha, 49 DAA",99%
same,Control of Ambrosia Artemisifolia,"Ambrosia artemisifolia; 2500 g a.i/ha, 28 DAA",92%
same,Control of Ambrosia Artemisifolia,"Ambrosia artemisifolia; 2500 g a.i/ha, 35 DAA",93%
same,Control of Ambrosia Artemisifolia,"Ambrosia artemisifolia; 2500 g a.i/ha, 49 DAA",99%
